Source: paper PMC5756575, “In Vitro Biotransformation, Safety, and Chemopreventive Action of Novel 8-Methoxy-Purine-2,6-Dione Derivatives” (Applied Biochemistry and Biotechnology, 2017)

Columns and labels:
[1] = tested on: Cunninghamella elegans 1906 DMS; assay: Cunninghamella biotransformation assay, C. elegans; type: in vitro ADME; settings: 7-day incubation; for % of compound/metabolite in C. elegans: 0.5 mg/mL, LC-MS/MS; for % of tested (parental) compound metabolized at the end of experiment: C. elegans
Procedure: (§1) Three different strains of Cunninghamella were used: Cunninghamella echinulata NRRL 1384, Cunninghamella blakesleeana 1908 DMS, and Cunninghamella elegans 1906 DMS. The first was provided by Dr. A.J. Carnell (University of Liverpool, UK), whereas the two remaining were purchased from Deutsche Sammlung von Mikroorganismen und Zellkulturen GmbH (DMSZ, Braunschweig, Germany).
(§2) Cunninghamella strains were cultivated on solid potato dextrose agar (PDA) plates at 28 °C. After 4 days, a liquid fermentation basal medium was prepared by the addition of 6 g of D-glucose, 1.5 g of NaCl, 1.5 g of yeast extract from Saccharomyces cerevisiae, and 1.5 g of K2HPO4 to 300 mL of distilled water. Aliquots of 24.5 mL of medium were inoculated with 300 μL of suspension of fungal spores obtained after wetting colonies in PDA. The fungi were incubated with shaking until the formation of spherical clumps.
(§3) Compounds 2–4 were evaluated in this experiment. Once microorganisms formed spherical clumps in the preliminary incubation, the corresponding tested compound was added to the broth and the mixture was incubated for 7 days. Two control experiments were also performed, in the absence of compound and fungus, respectively. Biotransformation progress was monitored by TLC and by liquid chromatography electrospray ionization-tandem mass spectrometry (LC-MS/MS). Monitoring was performed at four different incubation times: 30 min, 3 days, 5 days, and 7 days.
(§4) To analyze metabolites in LC-MS/MS, an aliquot of 500 μL of filtered sample was taken and extracted with 500 μL of dichloromethane. The organic fraction was dried with sodium sulfate, filtered, and evaporated. The obtained residue was analyzed in LC-MS/MS. At the end of experiment, all the remaining medium was extracted with 25 mL of dichloromethane after separating the fungal clumps by filtration over cellulose filters.
(§5) Agilent 1100 HPLC system (Agilent Technologies, Waldbronn, Germany) equipped with a Xbridge™ C18 analytical column (2.1 × 30 mm, […]; Waters, Dublin, Ireland) was used in the chromatographic separation of LC-MS/MS analysis. An elution gradient of acetonitrile and water, with 0.1% of formic acid, was used as a mobile phase. MS spectra were taken at Applied Biosystems MDS Sciex API 200 triple quadrupole mass analyzer (Concord, Ontario, Canada) with an electrospray ionization (ESI) interface between HPLC and MS.

[2] = tested on: Cunninghamella echinulata NRRL 1384; assay: Cunninghamella biotransformation assay, C. echinulata; type: in vitro ADME; settings: 7-day incubation; for % of compound/metabolite in C. echinulata: 0.5 mg/mL, LC-MS/MS; for % of tested (parental) compound metabolized at the end of experiment: C. echinulata
Procedure: as §1, §2, §3, §4, §5

Cunninghamella strains = assay: Cunninghamella biotransformation assay, three strains together and blank without fungus; type: in vitro ADME; settings: blank: control in the absence of fungus, 7-day incubation
Procedure: as §1, §2, §3, §4
Agilent 1100 HPLC system (Agilent Technologies, Waldbronn, Germany) equipped with a Xbridge™ C18 analytical column (2.1 × 30 mm, […]; Waters, Dublin, Ireland) was used in the chromatographic separation of LC-MS/MS analysis. […]

Vibrio harveyi BB7XM = assay: Vibrio harveyi mutagenicity assay, BB7XM; type: cell-based; settings: 40 ng/mL; for MI (mutagenicity index): mutagenic if MI above 2.0; for Number of revertants per plate, Mean ± SD: mutagenicity
Procedure: From them, 0.2 mM working solutions were prepared by dilution with water. […] Working solutions were prepared by 1:100 dilution of stock solution in water, and final compound concentration assayed was 40 ng/mL.
(§6) Four Vibrio harveyi strains were used in this study: a wild-type BB7 (naturally found in the Baltic Sea) and three genetically modified strains, namely BB7M (obtained by the introduction of pAB1273 plasmid containing the genes mucA and mucB to enhance the error-prone DNA repair), BB7X (hypersensitive to UV radiation after genetic modification with Tn5TpMCS), and BB7XM (containing the two abovementioned modifications). These strains were kindly provided by Prof. G. Węgrzyn (Department of Molecular Biology, University of Gdańsk, Poland).
(§7) It causes point mutations at the genome as it induces G:C → A:T transitions in Vibrio harveyi strains and in other bacteria such as Escherichia coli and S. typhimurium. […] Next, its working solution was prepared in sterile water, being 40 ng/mL its final concentration.
To perform the V. harveyi mutagenicity test, 10 μL of a working solution of the tested compound (100 μg/mL) were added to V. harveyi bacterial culture (OD600 = 0.1) in NaCl-containing BOSS liquid medium, being 40 ng/mL the final concentration of the tested compound. […] Then, an inoculum containing 5 × 10^6 cells was added to solid BOSS agar plate supplemented with neomycin sulfate at a final concentration of 100 μg/mL. Samples were left incubating 48 h at 30 °C, and revertant colonies were counted manually.

[3] = tested on: Salmonella typhimurium TA100; assay: Ames mutagenicity test; type: cell-based
Procedure: From them, 0.2 mM working solutions were prepared by dilution with water. […]
(§8) In the Ames test, Salmonella typhimurium TA100 strain was used. This strain has a base-pair substitution that can be reverted by mutations at GC pairs. In addition, it contains mutations at uvrB-bio and rfa genes to eliminate excision repair mechanisms and to make the bacteria more permeable to chemicals, respectively. Finally, TA100 also includes pKM101 plasmid, which enhances both chemical and UV-induced mutagenesis via an increase in the error-prone recombinational DNA repair pathway. TA100 strain of S. typhimurium was provided by Dr. T. Nohmi (Division of Genetics and Mutagenesis, National Institute of Hygienic Sciences, Tokyo, Japan). V. harveyi and S. typhimurium bacterial cultures were maintained at 30 and 37 °C, respectively.
It causes point mutations at the genome as it induces G:C → A:T transitions in Vibrio harveyi strains and in other bacteria such as Escherichia coli and S. typhimurium. […]
S. typhimurium was cultivated in a fresh medium 12 h prior to a test. To perform mutagenicity assay, 100 μL of an overnight culture (containing approx. 1 × 10^8 to 2 × 10^8 bacteria) were inoculated along with 50 μL of a tested compound in 2 mL of top agar supplemented with traces of histidine and of biotin. Then the mixture was added over the surface of GM agar plates and was left incubating 48 h at 37 °C. Afterwards, the colonies were counted manually.

Vibrio harveyi BB7M = assay: Vibrio harveyi antimutagenicity assay against NQNO, BB7M; type: cell-based; settings: compound 40 ng/mL + NQNO 40 ng/mL; for Number of revertants per plate, Mean ± SD: antimutagenicity, NQNO line = NQNO as a single compound
Text: as §6, §7
(§9) Procedure followed in the V. harveyi antimutagenicity assay was similar to the mutagenicity method described before. […] The results were expressed as the inhibition percentage of mutagenic effect, which was calculated with the formula: 100 − [(R 1/R 2) × 100], where R 1 is the number of revertants per plate in the presence of both mutagen and tested substance, and R 2 is the number of revertants per plate in the presence of mutagen. […] S. typhimurium antimutagenicity assay was based on similar assumptions as the V. harveyi antimutagenicity test. In this case, the chemopreventive activity was determined at two concentrations of a tested compounds and a standard mutagen, i.e., 40 and 500 ng/mL.

[4] = tested on: Salmonella typhimurium TA100; assay: S. typhimurium antimutagenicity assay against NQNO; type: cell-based; settings: for Number of revertants per plate, Mean ± SD: antimutagenicity, NQNO line = NQNO as a single compound
Text: as §8, §7, §9

[5] = TA100, 40 ng/mL, mutagenic if MI >2.0
[6] = TA100, 500 ng/mL (NQNO control stated as 40 ng/mL in method)
[7] = TA100, compound and NQNO 40 ng/mL
[8] = TA100, compound and NQNO 500 ng/mL

COc1nc2c(c(=O)n(C)c(=O)n2C)n1CCCC(=O)NCc1ccccc1 [Compound 3, N-benzyl-4-(8-methoxy-1,3-dimethyl-2,6-dioxo-purin-7-yl)butanamide]
% of compound/metabolite in C. elegans [1]: 99.4%
% of tested (parental) compound metabolized at the end of experiment [1]: 0.6%
% of compound/metabolite in C. echinulata [2]: 92.4%
% of tested (parental) compound metabolized at the end of experiment [2]: 7.6%
% of compound/metabolite in blank (Cunninghamella strains): 100.0%
MI (mutagenicity index) (Vibrio harveyi BB7XM): 1.1
Number of revertants per plate, Mean ± SD (Vibrio harveyi BB7XM): 35 ± 7
Number of revertants per plate, Mean ± SD ([3]; TA100, 40 ng/mL): 53 ± 11
MI (mutagenicity index) [3, 5]: 1.5
MI (mutagenicity index) [3, 6]: 0.2
Number of revertants per plate, Mean ± SD [3, 6]: 6 ± 3
Number of revertants per plate, Mean ± SD (Vibrio harveyi BB7M): 48 ± 8
% inhibition of NQNO mutagenicity (Vibrio harveyi BB7M): 50%
% inhibition of NQNO mutagenicity [4, 7]: 96%
% inhibition of NQNO mutagenicity [4, 8]: 92%
Number of revertants per plate, Mean ± SD [4, 7]: 4 ± 2
Number of revertants per plate, Mean ± SD [4, 8]: 8 ± 3

COc1nc2c(c(=O)n(C)c(=O)n2C)n1CCCC(=O)N1CCN(c2ccccc2)CC1 [Compound 4, 8-methoxy-1,3-dimethyl-7-[4-oxo-4-(4-phenylpiperazin-1-yl)butyl]purine-2,6-dione]
% of compound/metabolite in C. elegans [1]: 47.0%
% of tested (parental) compound metabolized at the end of experiment [1]: 53.0%
% of compound/metabolite in C. echinulata [2]: 12.4%
% of tested (parental) compound metabolized at the end of experiment [2]: 87.6%
% of compound/metabolite in blank (Cunninghamella strains): 100.0%
MI (mutagenicity index) (Vibrio harveyi BB7XM): 1.2
Number of revertants per plate, Mean ± SD (Vibrio harveyi BB7XM): 41 ± 9
Number of revertants per plate, Mean ± SD ([3]; TA100, 40 ng/mL): 48 ± 7
MI (mutagenicity index) [3, 5]: 1.3
MI (mutagenicity index) [3, 6]: 0.4
Number of revertants per plate, Mean ± SD [3, 6]: 10 ± 1
Number of revertants per plate, Mean ± SD (Vibrio harveyi BB7M): 50 ± 9
% inhibition of NQNO mutagenicity (Vibrio harveyi BB7M): 49%
% inhibition of NQNO mutagenicity [4, 7]: 93%
% inhibition of NQNO mutagenicity [4, 8]: 88%
Number of revertants per plate, Mean ± SD [4, 7]: 6 ± 2
Number of revertants per plate, Mean ± SD [4, 8]: 11 ± 3
